Results on 3 molecules are retold here after US20050084916A1, “Identification of the IkappaBNS protein and its products” (priority 2001, published 2005).

Experiment [1] concerns thymocytes in N15tg RAG-2−/− H-2b FTOC. To be noted: cited from earlier work.
A further experiment deals with IκBNS mRNA. The class given is cell-based, mouse.
Experiment [2] has as its system NF-κB. Briefly: NF-κB luciferase reporter assay in transfected Cos-7 cells. The class given is cell-based. On the technique in general: A reporter such as luciferase makes a cellular process visible.
For experiment [3], the system named is NF-κB. The experiment is described as follows: NF-κB-sensitive reporter constructs in transiently transfected Jurkat T cells. The class given is cell-based.

As to `CC(C)C[C@H](N)C(=O)O` [L4], the thymic selection outcome in experiment [1] was “positive selection”. In addition, in the experiment with IκBNS mRNA, the “IκBNS mRNA induction” value was “do not upregulate”.

Consider `CCCCCCCCCCCCCC(=O)O[C@@H]1[C@@H](C)[C@@]2(O)[C@@H](C=C(CO)C[C@]3(O)C(=O)C(C)=C[C@@H]23)[C@@H]2C(C)(C)[C@]12OC(C)=O` [PMA, phorbol-12-myristate-13-acetate], for which the “increase in NF-κB luciferase activity relative to untreated cells” value with NF-κB [2] (50 ng/ml for 7 h) is on record as 5-10 fold.

B1: IκBNS: novel 327 amino acid IκB family protein with 7 ankyrin domains (SEQ ID NO: 4); expressed from Flag-tagged pcDNA3.1 construct (protein)
chain: MEDSLDTRLYPEPSLSQVGSWRVSSLPSGSPQLPSPTGPSLETARAHILALGPQQLLAQMEDDTYSLQGWRVSPSGPQPGPSLEARAHLALGPQQLLAQDEEGDTLLHLFAARGLRWAAYAAAEVLQMYRQLDIREHKGKTPLLVAAAANQPLIVEDLLDEEGDTLLHLFAARGLRWAAYAAAEVLQYRLDIREHKGKTPLLVAAAANQPLIVEDLLSLGAEPNATDHQGRSVLHVAATYGLPGVLSAVFKSGIQVDLEARDFEGLTPLHTAVLALNLGAEPNADHQGRSVLHVAATYGLPGVLAVSGQVDLEARDFEGLTPLHTALALNAAMLPASVCPRMQNSQARDRLTCVQMLLQMGASHTSQEIKSNKTILHLAVQAANPTLVQLAMPCPRQARDRLCVMLLQMGAHTSQEIKSNKTLHLAVQAANPTLVQLLLGLPRGDLRAFVNMKAHGNTALHMAAALPPGPPQEAIVRHLLAAGADPTLRNLENEQPVLLLPRGDLRFVNMKAHGNTALHMAAALPPGPQEAIVRHLLAAGADPTLRNLEGEQPVHLLRPGGPEGLRQLLKRSRTAPPGLSSHLLRPGGPEGLRQLLKRSRAPPGLSS
modifications: Flag tag; mouse
notes: expressed from Flag-tagged pcDNA3.1 construct
As to B1, in the experiment on NF-κB [2] (10 μg construct, PMA 50 ng/ml 7 h), the “effect of cotransfection on PMA-induced NF-κB-driven luciferase activity” value is given as “reduced NF-κB-driven luciferase activity to a level approaching that of cells transfected with the vector only”. The “activity of NF-κB-sensitive reporter constructs” value in the experiment on NF-κB [3] is listed as “reduced the activity”.
